Laboratory results: article PMC6112376, “Comprehensive Analyses and Prioritization of Tox21 10K Chemicals Affecting Mitochondrial Function by in-Depth Mechanistic Studies” (Environmental Health Perspectives, 2018)
Read-outs that look alike come from different tables or passages of the source.

What was measured:
hNSC = assay: MMP assay in human neural stem cells (hNSC); assay type: cell-based; conditions: Homo sapiens, Neural stem cell, 1 h, read-out: hNSC IC50 (MMP)
HepG2 cells [1] = assay: ROS-Glo hydrogen peroxide (ROS) assay; assay type: cell-based, human
HepG2 cells [2] = assay: Intracellular ATP content (cell viability) assay; assay type: cell-based, human
[3] = test system: p53 (p53-bla HCT-116 cells); assay: p53 β-lactamase reporter gene assay; assay type: cell-based, human; conditions: 16 h incubation; mean±SD of three experiments
[4] = test system: Nrf2/ARE (ARE-bla HepG2 cells); assay: ARE β-lactamase reporter gene assay; assay type: cell-based, human; conditions: 16 h incubation; mean±SD of three experiments
[5] = test system: isolated rat liver mitochondria; assay: Oxygen consumption, Clark-type oxygen electrode; assay type: biochemical
[6] = test system: HeLa cells expressing YFP-Parkin; assay: Parkin translocation assay; assay type: cell-based, human
rat primary hepatocytes [7] = test system: rat primary hepatocytes
HepG2 cells [8] = conditions: cited from earlier work
HepG2 cells [9] = assay: cells; conditions: Homo sapiens
[10] = test system: Caenorhabditis elegans strain PE255; assay: In vivo C. elegans ATP status assay
rat primary hepatocytes [11] = assay: MMP assay in rat primary hepatocytes; conditions: Rattus norvegicus, Hepatocyte
[12] = test system: Caenorhabditis elegans (Bristol N2); assay: C. elegans larval development and growth assay

With `O=C(Nc1ccccc1)Nc1ccccc1` [Diphenylurea] the IC50 (hNSC) was 12.1 µM, the “ROS (HepG2) EC50” value (HepG2 cells [1]) was “Inactive” and the “ATP (HepG2, galactose) IC50” value (HepG2 cells [2]) was “Inactive”. For the same compound, the “ATP (HepG2, glucose) IC50” value (HepG2 cells [2]) was “Inactive”, the “p53 (HCT-116) EC50” value [3] was “Inactive” and the “ARE (HepG2) EC50” value [4] was “Inactive”. For the same compound, the “Potential Mechanism” value [5] was “Uncoupler at low concentrations (20 µM), and Uncoupler + inhibitor at high concentrations (100 µM)”, the “I-ADP, % of control (O2 consumption rate)” value ([5]; 0.8 µM) was 97 (36.2) % of control and the “I-sub, % of control (O2 consumption rate)” value ([5]; 0.8 µM) was 105 (11.3) % of control. For the same compound, the “II-ADP, % of control (O2 consumption rate)” value (“II-ADP, % of control” for short) ([5]; 0.8 µM) was 91 (57.2) % of control, the “II-sub, % of control (O2 consumption rate)” value (from here on “II-sub, % of control”) ([5]; 0.8 µM) was 106 (19.6) % of control and the “I-ADP, % of control (O2 consumption rate)” value ([5]; 4 µM) was 93 (34.6) % of control. The “I-sub, % of control (O2 consumption rate)” value ([5]; 4 µM) was 104 (11.2) % of control, the “II-ADP, % of control” value ([5]; 4 µM) was 83 (52.5) % of control and the “II-sub, % of control” value ([5]; 4 µM) was 97 (18.0) % of control. For the same compound, the “I-ADP, % of control (O2 consumption rate)” value ([5]; 20 µM) was 96 (35.6) % of control, the “I-sub, % of control (O2 consumption rate)” value ([5]; 20 µM) was 144 (15.5) % of control and the “II-ADP, % of control” value ([5]; 20 µM) was 91 (57.6) % of control. The “II-sub, % of control” value ([5]; 20 µM) was 129 (23.9) % of control, the “I-ADP, % of control (O2 consumption rate)” value ([5]; 100 µM) was 38 (19.1) % of control and the “I-sub, % of control (O2 consumption rate)” value ([5]; 100 µM) was 167 (35.8) % of control. The “II-ADP, % of control” value ([5]; 100 µM) was 25 (15.1) % of control, the “II-sub, % of control” value ([5]; 100 µM) was 55 (19.1) % of control and the Parkin recruitment [6] was “Inactive”. The “MMP assays efficacy (%) Rat Hepatocytes” value (rat primary hepatocytes [7]) was -72±30%, the “Rat hepatocytes (efficacy) (MMP)” value (rat primary hepatocytes [7]) was 15.4±2.88 ( −117±8.21 ) % and the “MMP assays efficacy (%) qHTS-HepG2” value (HepG2 cells [8]) was -111±9%. The IC50 (HepG2 cells [8]; read-out: MMP assays IC50 (µM) qHTS-HepG2) was 1.6 ± 0.74 µM, the IC50 (HepG2 cells [9]; HepG2, 1 h, read-out: HepG2 IC50 Galactose (MMP)) was 10.3 µM and the IC50 (HepG2 cells [9]; HepG2, 1 h, read-out: HepG2 IC50 Glucose (MMP)) was 7.73 µM. For the same compound, the IC50 (HepG2 cells [9]; HepG2, read-out: MMP assays IC50 (µM) HepG2) was 2.51 µM, the Emax (HepG2 cells [9]; HepG2, read-out: MMP assays efficacy (%) HepG2) was 131% and the “LUM: mean difference in luminescence (ATP content) relative to plate controls” value ([10]; 0.5 µM) was 0.08612. For the same compound, the “LUM: mean difference in luminescence (ATP content) relative to plate controls” value ([10]; 1 µM) was 0.1632, the “LUM: mean difference in luminescence (ATP content) relative to plate controls” value ([10]; 5 µM) was 0.3729 and the “LUM: mean difference in luminescence (ATP content) relative to plate controls” value ([10]; 10 µM) was 1.1516. For the same compound, the “LUM: mean difference in luminescence (ATP content) relative to plate controls” value ([10]; 25 µM) was 1.501, the “LUM: mean difference in luminescence (ATP content) relative to plate controls” value ([10]; 50 µM) was 1.222 and the “LUM: mean difference in luminescence (ATP content) relative to plate controls” value ([10]; 75 µM) was 0.9702. The “LUM: mean difference in luminescence (ATP content) relative to plate controls” value ([10]; 100 µM) was 0.9744, the “effect on ATP content (in words)” value ([10]; 0.5–100μM) was “statistically significant decreases in ATP content” and the minimal effective concentration ([10]; Caenorhabditis elegans, read-out: LEC LUM: lowest effect concentration for luminescence, a measure of nematode ATP content) was 10 µM. For the same compound, the IC50 (rat primary hepatocytes [11]; 1 h, read-out: Rat hepatocytes IC50 (MMP)) was 15.4 µM, the IC50 (rat primary hepatocytes [11]; read-out: MMP assays IC50 (µM) Rat Hepatocytes) was 8.46 ± 2.39 µM and the “EXT: mean difference in nematode size relative to plate controls” value ([12]; 0.5 µM) was 0.0636. For the same compound, the “EXT: mean difference in nematode size relative to plate controls” value ([12]; 1 µM) was 0.005834, the “EXT: mean difference in nematode size relative to plate controls” value ([12]; 5 µM) was -0.06608 and the “EXT: mean difference in nematode size relative to plate controls” value ([12]; 10 µM) was 0.006337. For the same compound, the “EXT: mean difference in nematode size relative to plate controls” value ([12]; 25 µM) was 0.05471, the “EXT: mean difference in nematode size relative to plate controls” value ([12]; 50 µM) was 0.1792 and the “EXT: mean difference in nematode size relative to plate controls” value ([12]; 75 µM) was 0.1069. For the same compound, the “EXT: mean difference in nematode size relative to plate controls” value ([12]; 100 µM) was 0.0228 and the “effect on larval growth (in words)” value ([12]; 0.5–100μM) was “did not affect growth”.
